Several values for one entry are separate records, joined by “and”; a condition that tells them apart may be missing. Equal entries are not always repeated. Entries after “also recorded” stand apart in the source; their conditions may differ. Where two headings read alike, the source gives them in different places.
Assays:
[1] = system: NADH-Oxidase (complexes I, III and IV); assay: NADH-oxidase activity in lysed rat brain mitochondria; type: biochemical
[2] = system: Complex I/III: NADH:cytochrome C-oxidoreductase; assay: Complex I/III activity in lysed rat brain mitochondria; type: biochemical
[3] = system: Complex IV: ferrocytochrome C oxidase:oxygen oxidoreductase; assay: Complex IV activity in lysed rat brain mitochondria; type: biochemical; conditions: for Prevention of the complex IV inhibition observed with DAH: (2U) SOD plus (2U) Cat, 10 uM pargyline and 10 uM clorgyline, DTT 50 uM, data not shown; for Effect on complex IV activity: lysed rat brain mitochondria, 15 min pre-incubation at room temperature
complex I = conditions: cited from earlier work
[4] = system: Complex I: NADH:ubiquinone oxidoreductase; assay: Complex I activity in lysed rat brain mitochondria; type: biochemical; conditions: for Effect on complex I activity: lysed rat brain mitochondria, 30 min pre-incubation (same with no pre-incubation)
[5] = target: Complex II: succinate:ubiquinone oxidoreductase (Rattus norvegicus, UniProt P21913+Q641Z9+Q6PCT8+Q920L2); assay: Complex II activity; type: biochemical; conditions: for Effect on complex II activity: lysed rat brain mitochondria, 15 min pre-incubation at room temperature, malonate sensitive activity
Chain of Complex II: succinate:ubiquinone oxidoreductase (Q920L2 35-656): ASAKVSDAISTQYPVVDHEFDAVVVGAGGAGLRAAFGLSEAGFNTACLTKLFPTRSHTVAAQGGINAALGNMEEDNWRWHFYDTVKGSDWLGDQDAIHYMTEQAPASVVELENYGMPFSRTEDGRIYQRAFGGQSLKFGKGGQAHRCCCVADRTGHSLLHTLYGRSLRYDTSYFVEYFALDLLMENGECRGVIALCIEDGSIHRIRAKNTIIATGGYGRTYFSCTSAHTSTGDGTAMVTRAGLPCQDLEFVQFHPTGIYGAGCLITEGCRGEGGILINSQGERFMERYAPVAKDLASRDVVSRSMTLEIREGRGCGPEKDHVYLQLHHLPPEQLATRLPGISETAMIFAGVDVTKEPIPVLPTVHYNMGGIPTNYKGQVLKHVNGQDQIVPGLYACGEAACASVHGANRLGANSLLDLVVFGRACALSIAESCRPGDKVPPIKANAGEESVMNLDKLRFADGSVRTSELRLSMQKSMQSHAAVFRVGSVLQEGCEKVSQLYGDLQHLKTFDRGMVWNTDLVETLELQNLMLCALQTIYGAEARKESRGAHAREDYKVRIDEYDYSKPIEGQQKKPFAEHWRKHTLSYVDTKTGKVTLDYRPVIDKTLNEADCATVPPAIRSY
Chain of Complex II: succinate:ubiquinone oxidoreductase (P21913 31-282): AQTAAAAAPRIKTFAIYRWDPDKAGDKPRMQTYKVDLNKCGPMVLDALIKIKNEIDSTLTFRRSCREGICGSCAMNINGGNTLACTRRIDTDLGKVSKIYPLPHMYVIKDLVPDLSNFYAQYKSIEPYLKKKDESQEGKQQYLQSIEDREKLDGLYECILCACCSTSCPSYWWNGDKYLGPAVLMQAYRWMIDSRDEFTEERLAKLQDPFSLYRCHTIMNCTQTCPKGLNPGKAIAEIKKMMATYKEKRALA
Chain of Complex II: succinate:ubiquinone oxidoreductase (Q641Z9 1-169): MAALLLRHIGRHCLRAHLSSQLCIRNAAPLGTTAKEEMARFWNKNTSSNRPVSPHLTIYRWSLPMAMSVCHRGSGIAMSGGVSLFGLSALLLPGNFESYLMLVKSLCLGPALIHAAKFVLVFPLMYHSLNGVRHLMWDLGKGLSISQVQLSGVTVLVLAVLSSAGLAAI
Chain of Complex II: succinate:ubiquinone oxidoreductase (Q6PCT8 57-159): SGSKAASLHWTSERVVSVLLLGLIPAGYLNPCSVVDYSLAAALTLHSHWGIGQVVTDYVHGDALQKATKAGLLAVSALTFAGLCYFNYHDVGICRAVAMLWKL

[6] = system: Complex II/III: succinate:cytochrome C-oxidoreductase; assay: Complex II/III activity in lysed rat brain mitochondria; type: biochemical
complex IV = conditions: cited from earlier work; for Inhibition of complex IV: 400 uM DA, 2 hrs of incubation
[7] = system: Complex III: ubiquinol: ferricytochrome C oxidoreductase; assay: Complex III activity in lysed rat brain mitochondria; type: biochemical; conditions: for Inhibition of complex III activity: myxothiazol (60uM) and antimycin A (0.002mg/ml) together, parallel control
[8] = read-out: Inhibition of complex II activity

Compound: C=C(C)[C@H]1Cc2c(ccc3c2O[C@@H]2COc4cc(OC)c(OC)cc4[C@@H]2C3=O)O1 [rotenone, reference compound]
- Inhibition of NADH-oxidase activity [1]: ≥ 90%
- Inhibition of complex I/III activity [2]: ≥ 95%

Compound: C#CCN(C)Cc1ccccc1 [pargyline, reference compound]
- Prevention of the complex IV inhibition observed with DAH ([3]; 1 mM DAH): not prevented

Compound: CC(=O)N(O)CCCCCNC(=O)CCC(=O)N(O)CCCCCNC(=O)CCC(=O)N(O)CCCCCN [desferoxamine, reference compound]
- Attenuation of DA mediated inhibition of complex I activity (complex I): partially attenuated

Compound: NCCc1ccc(O)c(O)c1 [DAH, dopamine]
- Effect on complex I activity [4]: not affected; also recorded: No effect at 1mM
- Effect on complex II activity [5]: Significantly inhibited at 500 uM and 1mM
- inhibition at 500 µM [5, 8]: 32.7 ± 2%
- inhibition at 1000 µM [5, 8]: 41.9 ± 5.5%
- Complex IV activity, % of control ([3]; 1 mM DAH, concluded to be an artifact (back reaction with oxidized cytochrome C)): 61 % of control
- Effect on complex IV activity [3]: Inhibited at 1mM due to artifactual competing back reaction between oxidized cytochrome C and reduced dopamine
- Complex I/III activity, mean % of control ([2]; 200 uM DA plus tyrosinase (25U) alone (DAQ), ± sem): 7 % of control
- Effect on complex II/III activity [6]: inhibited complex II/III activity to a similar extent as was observed with complex II alone
- IC50 (complex I; read-out: IC50 for inhibition of complex I): 8 to 12 µM and 8.12 µM
- Inhibition of complex IV (complex IV; ref 29): 62.8%
- Inhibition of complex IV (complex IV; ref 30): 57%
- Effect on complex IV (complex IV; DA up to 1mM, 1 min incubation): no inhibition

Compound: CCCCCC[C@H]1C(=O)O[C@H](C)[C@H](NC(=O)c2cccc(NC=O)c2O)C(=O)O[C@@H](C)[C@@H]1OC(=O)CC(C)C [antimycin A]
- Inhibition of complex III activity [7]: ≥ 95%

Compound: catalase
- Prevention of DAQ mediated inhibition of complex I ([4]; 50 uM DAQ plus SOD [2U] and catalase [1U] together): did not prevent
- Prevention of the complex IV inhibition observed with DAH ([3]; 1 mM DAH): not prevented

Compound: O=C(O)CC1=CC(=O)C(=O)C=C1 [DOPAC-Q]
- Effect on complex II activity [5]: did not attenuate; also recorded: No effect up to 400 uM
- IC50 ([7]; read-out: IC50 for inhibition of complex III activity, 15 min pre-incubation at room temperature, mean ± SEM): 110 µM
- Effect on complex IV activity [3]: did not inhibit; also recorded: No effect up to 400 uM

Compound: C#CCN(C)CCCOc1ccc(Cl)cc1Cl [clorgyline, reference compound]
- Prevention of the complex IV inhibition observed with DAH ([3]; 1 mM DAH): not prevented

Compound: CO/C(=C/C(N)=O)[C@H](C)[C@H](/C=C/c1csc(-c2csc([C@@H](C)/C=C/C=C/C(C)C)n2)n1)OC [myxothiazol]
- Inhibition of complex III activity [7]: ≥ 95%

Compound: O=C(O)CC(=O)O [malonate, reference compound]
- Inhibition of complex II activity ([5]; malonate 10mM, parallel control): 90–95%

Compound: O=C(O)Cc1ccc(O)c(O)c1 [DOPAC-H, 3,4-dihydroxyphenylacetic acid]
- Effect on complex I activity [4]: not affected; also recorded: No effect at 1mM
- Effect on complex II activity [5]: not significantly affected; also recorded: not attenuated; also recorded: No effect at 1mM
- Effect on complex IV activity [3]: not affected; also recorded: No effect at 1mM
- Effect on complex II/III activity ([6]; lysed rat brain mitochondria, 15 min exposure at room temperature, inhibitor corrected rates): did not significantly inhibit
- Effect on complex IV activity (complex IV; 400 uM DOPAC, rat brain mitochondria, 2 hr pre-incubation): only marginal effects

Compound: O[C@@H](CS)[C@@H](O)CS [DTT, dithioreitol, reference compound]
- Prevention of the complex IV inhibition observed with DAH ([3]; 1 mM DAH): not prevented

Source: paper PMC3108181 (Biochimica et biophysica acta, 2011)
